Laboratory results taken from ChEMBL document CHEMBL4406802, “Human disorders associated with inflammation and the evolving role of natural products to overcome” (Eur J Med Chem, 2019).
Converted amounts (≈) assume the structure as drawn.

Legend:
BV-2 = assay: Antiinflammatory activity in mouse BV2 cells assessed as inhibition of LPS-induced nitric oxide production at 10 uM relative to control; assay type: functional
[1] = biological target: T1, Prostaglandin G/H synthase 2 (Homo sapiens) (UniProt P35354); assay: Inhibition of N-terminal His6-tagged recombinant human COX2 expressed in baculovirus infected sf21 cells at 20 uM relative to control
T1 sequence (whole entry): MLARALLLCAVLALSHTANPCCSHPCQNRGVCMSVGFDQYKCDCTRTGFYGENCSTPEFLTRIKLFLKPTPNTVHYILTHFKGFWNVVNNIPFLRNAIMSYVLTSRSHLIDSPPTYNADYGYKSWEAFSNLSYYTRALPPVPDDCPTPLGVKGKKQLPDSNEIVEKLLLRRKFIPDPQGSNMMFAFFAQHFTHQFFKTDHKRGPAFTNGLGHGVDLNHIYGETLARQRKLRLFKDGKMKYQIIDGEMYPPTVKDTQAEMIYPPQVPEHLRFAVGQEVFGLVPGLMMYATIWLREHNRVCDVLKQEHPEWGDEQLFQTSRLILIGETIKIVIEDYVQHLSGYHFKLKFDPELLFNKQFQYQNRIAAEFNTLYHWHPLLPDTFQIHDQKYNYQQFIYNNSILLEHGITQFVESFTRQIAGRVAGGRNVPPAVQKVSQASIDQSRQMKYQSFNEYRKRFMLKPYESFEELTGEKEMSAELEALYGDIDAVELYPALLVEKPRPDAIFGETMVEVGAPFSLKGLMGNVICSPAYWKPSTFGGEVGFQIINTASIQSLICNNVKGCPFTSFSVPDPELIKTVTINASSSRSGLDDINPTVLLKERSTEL

[2] = biological target: Nitric oxide synthase, inducible (Homo sapiens, UniProt P35228); assay: Inhibition of iNOS (unknown origin) at 20 uM relative to control
RAW264.7 [3] = assay: Antiinflammatory activity in mouse RAW264.7 cells assessed as inhibition of LPS-induced nitric oxide production at 25 uM relative to control; assay type: functional
[4] = Inhibition of soybean 15-LOX using linoleic acid as substrate preincubated for 5 mins followed by substrate addition and measured after 20 mins by spectrophotometric analysis; set-up: species or system Glycine max
[5] = biological target: T2, Polyunsaturated fatty acid 5-lipoxygenase (Homo sapiens) (UniProt P09917); assay: Inhibition of 5-lox (unknown origin) at 20 uM relative to control
T2 sequence (whole entry): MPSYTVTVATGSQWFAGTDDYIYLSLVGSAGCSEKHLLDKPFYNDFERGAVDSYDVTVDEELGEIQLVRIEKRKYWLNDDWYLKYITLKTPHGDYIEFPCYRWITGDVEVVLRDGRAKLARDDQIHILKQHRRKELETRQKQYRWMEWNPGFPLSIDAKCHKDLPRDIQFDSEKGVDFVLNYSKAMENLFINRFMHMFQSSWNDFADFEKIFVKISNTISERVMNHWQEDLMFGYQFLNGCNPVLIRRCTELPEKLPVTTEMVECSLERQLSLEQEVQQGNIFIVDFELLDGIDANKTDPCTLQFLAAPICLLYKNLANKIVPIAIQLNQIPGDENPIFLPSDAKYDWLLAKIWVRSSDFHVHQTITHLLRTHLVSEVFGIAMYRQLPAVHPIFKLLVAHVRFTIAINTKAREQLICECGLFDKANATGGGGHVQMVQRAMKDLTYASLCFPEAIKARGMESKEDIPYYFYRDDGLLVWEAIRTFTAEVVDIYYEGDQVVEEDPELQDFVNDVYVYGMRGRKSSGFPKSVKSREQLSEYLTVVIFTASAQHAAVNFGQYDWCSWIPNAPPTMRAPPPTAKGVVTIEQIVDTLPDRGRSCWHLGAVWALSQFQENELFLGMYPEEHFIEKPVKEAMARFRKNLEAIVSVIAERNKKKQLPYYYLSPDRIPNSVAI

[6] = biological target: T3, Prostaglandin G/H synthase 1 (Ovis aries, UniProt P05979); assay: Inhibition of ovine COX1
T3 sequence (P05979 whole entry): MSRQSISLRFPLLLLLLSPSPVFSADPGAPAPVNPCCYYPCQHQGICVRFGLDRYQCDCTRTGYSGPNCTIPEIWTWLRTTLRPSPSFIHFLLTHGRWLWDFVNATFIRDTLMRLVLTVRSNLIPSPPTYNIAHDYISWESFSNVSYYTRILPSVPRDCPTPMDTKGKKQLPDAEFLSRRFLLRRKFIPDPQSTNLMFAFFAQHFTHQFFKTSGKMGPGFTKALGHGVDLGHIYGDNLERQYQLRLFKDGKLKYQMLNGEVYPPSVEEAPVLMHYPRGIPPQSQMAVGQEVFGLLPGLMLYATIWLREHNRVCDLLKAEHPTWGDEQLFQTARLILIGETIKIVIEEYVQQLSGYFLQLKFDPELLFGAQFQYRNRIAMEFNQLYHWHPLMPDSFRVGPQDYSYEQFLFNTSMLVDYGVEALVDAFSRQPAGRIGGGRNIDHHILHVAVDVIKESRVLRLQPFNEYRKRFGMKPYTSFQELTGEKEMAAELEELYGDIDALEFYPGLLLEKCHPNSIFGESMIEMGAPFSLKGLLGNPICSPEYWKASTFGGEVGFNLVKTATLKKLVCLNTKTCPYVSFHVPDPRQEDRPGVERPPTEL

RAW264.7 [7] = assay: Antiinflammatory activity in mouse RAW264.7 cells assessed as inhibition of LPS-induced nitric oxide production at […] after 24 hrs by Griess reagent based assay relative to control; assay type: functional; set-up: dose or concentration left out as unconfirmed; settings: RAW264.7, 24 h
THP-1 = assay: Antiinflammatory activity against human THP1 cells assessed as inhibition of LPS induced TNF-alpha at 40 uM preincubated for 30 mins followed by LPS stimulation measured after 24 hrs by ELISA relative to control; assay type: functional
RAW264.7 [8] = assay: Cytotoxicity against mouse RAW264.7 cells assessed as cell viability after 24 hrs by MTT assay relative to control; assay type: functional
RAW264.7 [9] = assay: Antiinflammatory activity in mouse RAW264.7 cells assessed as inhibition of LPS-induced nitric oxide production after 24 hrs by Griess reagent based assay relative to control; assay type: functional, cell-based; settings: RAW264.7, 24 h
RAW264.7 [10] = assay: Antiinflammatory activity against mouse RAW264.7 cells assessed as inhibition of LPS induced iNOS at 30 uM preincubated for 1 hr followed by LPS stimulation measured after 18 hrs relative to control; assay type: functional
RAW264.7 [11] = assay: Antiinflammatory activity against mouse RAW264.7 cells assessed as inhibition of LPS induced COX2 at 30 uM preincubated for 1 hr followed by LPS stimulation measured after 18 hrs relative to control; assay type: functional
[12] = biological target: Prostaglandin G/H synthase 2 (Homo sapiens) (UniProt P35354); assay: Inhibition of COX2 (unknown origin) at 0.01 mM using arachidonic acid as substrate preincubated for 15 mins followed by arachidonic acid addition measured after […] by ELISA relative to control

Chain of Nitric oxide synthase, inducible (P35228 whole entry): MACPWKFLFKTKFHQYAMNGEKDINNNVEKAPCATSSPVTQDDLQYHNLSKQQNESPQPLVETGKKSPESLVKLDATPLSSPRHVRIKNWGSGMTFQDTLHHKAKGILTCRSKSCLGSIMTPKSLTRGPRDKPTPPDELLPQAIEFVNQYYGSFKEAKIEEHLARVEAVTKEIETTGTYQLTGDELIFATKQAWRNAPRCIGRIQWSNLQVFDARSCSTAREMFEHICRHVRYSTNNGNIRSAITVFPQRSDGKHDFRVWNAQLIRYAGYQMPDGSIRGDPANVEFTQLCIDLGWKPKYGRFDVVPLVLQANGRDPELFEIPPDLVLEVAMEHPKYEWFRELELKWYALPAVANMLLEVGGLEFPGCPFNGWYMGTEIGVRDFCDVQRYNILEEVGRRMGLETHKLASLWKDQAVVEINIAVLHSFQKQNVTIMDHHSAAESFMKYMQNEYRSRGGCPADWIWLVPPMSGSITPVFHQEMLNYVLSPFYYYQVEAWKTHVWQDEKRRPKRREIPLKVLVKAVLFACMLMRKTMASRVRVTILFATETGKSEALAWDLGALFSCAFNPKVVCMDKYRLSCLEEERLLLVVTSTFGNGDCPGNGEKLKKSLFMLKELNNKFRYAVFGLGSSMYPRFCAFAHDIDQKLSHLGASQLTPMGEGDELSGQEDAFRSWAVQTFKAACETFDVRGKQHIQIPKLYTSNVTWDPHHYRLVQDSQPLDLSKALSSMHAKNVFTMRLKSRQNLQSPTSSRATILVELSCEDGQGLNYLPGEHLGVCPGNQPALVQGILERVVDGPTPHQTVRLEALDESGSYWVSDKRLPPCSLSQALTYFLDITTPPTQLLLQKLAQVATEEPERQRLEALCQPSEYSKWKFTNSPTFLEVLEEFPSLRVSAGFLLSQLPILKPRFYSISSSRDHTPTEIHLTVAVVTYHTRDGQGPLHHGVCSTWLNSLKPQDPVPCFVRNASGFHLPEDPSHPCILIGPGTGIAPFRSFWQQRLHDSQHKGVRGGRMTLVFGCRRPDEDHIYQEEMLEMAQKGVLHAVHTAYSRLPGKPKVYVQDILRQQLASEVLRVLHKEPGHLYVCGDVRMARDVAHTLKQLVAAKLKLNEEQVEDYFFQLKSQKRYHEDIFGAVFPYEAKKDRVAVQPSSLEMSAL

## COc1cc(/C=C/C(=O)CC(=O)/C=C/c2ccc(O)c(OC)c2)ccc1O [CURCUMIN]
BV-2
  inhibition at 10 µM: 53%

## C=C1C(=O)O[C@@H]2[C@H]3[C@@H](C)C(=O)C[C@H]3C(=C)CC[C@@H]12
[1]
  inhibition: 98.6%
[2]
  inhibition: 100%

## CC1CCC(O)[C@@]2(C)C[C@H]3OC(=O)[C@H](C)[C@H]3C=C12 (stereo partly drawn)
RAW264.7 [3]
  inhibition at 25 µM: 14.6%

## C=C(C)[C@H](CC=C(C)C)C[C@]12C[C@H](CC=C(C)C)C(C)(C)[C@](CC=C(C)C)(C(=O)C(C(=O)c3ccc(O)c(O)c3)=C1O)C2=O
[4]
  IC50: 43.05 ng/mL (≈ 0.0714 µM)

## COc1cc(C2Oc3cc(/C=C/COC(=O)CC(C)C)cc(OC)c3OC2COC(=O)CC(C)C)cc(OC)c1O (stereo not drawn)
[5]
  inhibition: 16.1%

## C=C1C(=O)OC2CC(C)=C(C(C)CCCOC(C)=O)C(OC(C)=O)C12 (stereo not drawn)
RAW264.7 [3]
  inhibition at 25 µM: 68.9%

## COc1cc(C2OCC3C(c4cc(OC)c(O)c(OC)c4)OCC23)cc(OC)c1O (stereo not drawn)
[5]
  inhibition: 28.5%

## COc1cc(CC2C(=O)OCC2Cc2cc(OC)c(O)c(C(CO)CO)c2)ccc1OC1O[C@H](CO)[C@@H](O)[C@H](O)[C@H]1O (stereo partly drawn)
BV-2
  inhibition at 10 µM: 71.6%

## COc1ccc(CC2COC(=O)C2Cc2cc(C(=O)O)oc(=O)c2)cc1OC (stereo not drawn)
BV-2
  inhibition at 10 µM: 75.5%

## O=C(/C=C/c1ccc(O)c(O)c1)OC1CC(O)(C(=O)O)CC(OC(=O)/C=C/c2ccc(O)c(O)c2)C1O (stereo not drawn)
[6]
  IC50: 4.96 µM

## O=c1c2cc(O)c(O)cc2oc2cc(O)cc(O)c12
[4]
  IC50: 44.61 ng/mL (≈ 0.171 µM)
RAW264.7 [7]
  inhibition: 70.8%

## COc1cc(CC2C(=O)OCC2C(O)c2ccc(OC)c(OC)c2)ccc1O (stereo not drawn)
BV-2
  inhibition at 10 µM: 63.3%

## COc1c(O)cc2c(=O)oc3c(OC)c(O[C@@H]4O[C@H](CO)[C@@H](O)[C@H](O)[C@H]4O)cc4c(=O)oc1c2c34
THP-1
  inhibition at 40 µM: 47.8%

## O=C(OC1Cc2c(O)cc(O)cc2OC1c1cc(O)c(O)c(O)c1)c1cc(O)c(O)c(O)c1 (stereo not drawn)
THP-1
  inhibition at 40 µM: 39.1%

## COc1ccc(C(O)C2COC(=O)C2Cc2ccc(OC3O[C@H](CO)[C@@H](O)[C@H](O)[C@H]3O)c(OC)c2)cc1OC (stereo partly drawn)
BV-2
  inhibition at 10 µM: 87.8%

## C=C1[C@@H]2[C@H]3OC(=O)C(=C)[C@@H]3CCC(=C)[C@@H]2C[C@@H]1O
[1]
  inhibition: 97%
[2]
  inhibition: 99.4%

## C[C@@H]1[C@H](O)CC[C@]2(C(=O)O)CC[C@]3(C)C(CC[C@@H]4[C@@]5(C)CC[C@H](O[C@@H]6O[C@H](C(=O)O)[C@@H](O)[C@H](O)[C@H]6O[C@@H]6O[C@H](CO)[C@H](O)[C@H](O)[C@H]6O[C@@H]6O[C@@H](C)[C@H](O)[C@@H](O)[C@H]6O)C(C)(C)[C@@H]5CC[C@]43C)[C@H]12 (stereo partly drawn)
RAW264.7 [8]
  Activity: 96.8%
RAW264.7 [9]
  IC50: 13.2 µM

## C=C1CC[C@]2(C(=O)O[C@@H]3O[C@H](CO)[C@@H](O)[C@H](O)[C@H]3O)CC[C@]3(C)C(=CC[C@@H]4[C@@]5(C)CC[C@H](O[C@@H]6OC[C@@H](O)[C@H](O)[C@H]6O[C@@H]6O[C@H](CO)[C@@H](O)[C@H](O)[C@H]6O)C(C)(C)[C@@H]5CC[C@]43C)[C@@H]2[C@H]1C
RAW264.7 [10]
  inhibition at 30 µM: 75.9%
RAW264.7 [11]
  inhibition at 30 µM: 40.9%

## C=C1C(=O)O[C@@H]2C[C@@]3(C)C(=C(C)C(O)CC3O)C[C@H]12 (stereo partly drawn)
RAW264.7 [3]
  inhibition at 25 µM: 23.8%

## CC(C)=CCOc1cc(O)c2c(=O)c3cc(OCC=C(C)C)c(O)cc3oc2c1
RAW264.7 [7]
  inhibition: 84.2%

## CC1(C)CC[C@]2(C(=O)O[C@@H]3O[C@H](CO)[C@@H](O)[C@H](O)[C@H]3O)CC[C@]3(C)C(=CC[C@@H]4[C@@]5(C)CC[C@H](O[C@@H]6OC[C@@H](O)[C@H](O)[C@H]6O[C@@H]6O[C@H](CO)[C@@H](O)[C@H](O)[C@H]6O)C(C)(C)[C@@H]5CC[C@]43C)[C@@H]2C1
RAW264.7 [10]
  inhibition at 30 µM: 88%
RAW264.7 [11]
  inhibition at 30 µM: 54.6%

## O=C(/C=C/c1ccc(O)c(O)c1)OC1CC(O)(C(=O)O)CC(O)C1OC(=O)/C=C/c1ccc(O)c(O)c1 (stereo not drawn)
[6]
  IC50: 5.87 µM

## CC1=C2C[C@H]3[C@@H](C[C@]2(C)C(O)CC1=O)OC(=O)[C@@H]3C (stereo partly drawn)
RAW264.7 [3]
  inhibition at 25 µM: 23.6%

## CC(C)=CCOc1cc(O)c2c(=O)c3cc(OCC=C(C)C)c(OCC=C(C)C)cc3oc2c1
RAW264.7 [7]
  inhibition: 81.4%

## C[C@@H]1O[C@@H](O[C@H]2[C@H](O[C@H]3[C@H](O[C@H]4CC[C@@]5(C)[C@@H](CC[C@]6(C)[C@@H]5CC=C5[C@@H]7C[C@]8(C)C[C@@H](OC8=O)[C@]7(C)CC[C@]56C)[C@@]4(C)CO)O[C@H](C(=O)O)[C@@H](O)[C@@H]3O)OC[C@@H](O)[C@@H]2O)[C@H](O)[C@H](O)[C@H]1O
RAW264.7 [8]
  Activity: 97.6%
RAW264.7 [9]
  IC50: 18.8 µM

## C[C@@H]1O[C@@H](O[C@H]2[C@H](O[C@H]3[C@H](O[C@H]4CC[C@@]5(C)[C@@H](CC[C@]6(C)[C@@H]5CC=C5[C@@H]7C[C@]8(C)C[C@@H](OC8=O)[C@]7(C)CC[C@]56C)[C@@]4(C)CO)O[C@H](C(=O)O)[C@@H](O)[C@@H]3O)O[C@H](CO)[C@H](O)[C@@H]2OC=O)[C@H](O)[C@H](O)[C@H]1O
RAW264.7 [8]
  Activity: 95.2%
RAW264.7 [9]
  IC50: 16.1 µM

## C=C1C(=O)O[C@@H]2C[C@]3(C)C(O)CCC(C)C3(O)C[C@H]12 (stereo partly drawn)
RAW264.7 [3]
  inhibition at 25 µM: 37.1%

## O=C(/C=C/c1ccc(O)c(O)c1)OC(C(=O)O)C(OC(=O)/C=C/c1ccc(O)c(O)c1)C(OC(=O)/C=C/c1ccc(O)c(O)c1)C(OC(=O)/C=C/c1ccc(O)c(O)c1)C(=O)O (stereo not drawn)
[6]
  IC50: 2.09 µM

## CC1(C)NC(CCc2ccc(O)cc2)CC(=O)C1Cc1ccc(O)cc1 (stereo not drawn)
[12]
  inhibition: 83.3%

## COc1cc(C2OCC3C(c4ccc(O)c(OC)c4)OCC23)ccc1O (stereo not drawn)
[2]
  inhibition: 49.1%
